The text below walks through data of EP4104829A1 (priority 2021, dated 2022).

Series [1] relates to SARS-CoV-2 (MAD-6). The series is described as follows: microbe, parasite or virus in culture. Type of series: cell-based. The settings on record: Severe acute respiratory syndrome coronavirus 2, Vero C1008.
A short description of series [2]: Cell viability by MTT assay (cytotoxicity), Huh-7. The conditions noted are these: human, Huh-7 cells.
Series [3] deals with foot-and-mouth disease virus (FMDV). The conditions noted are these: cited from earlier work.
The nature of series [4]: Cell viability by MTT assay (cytotoxicity), Vero-E6. The conditions noted are these: African green monkey, Vero-E6 cells.
Series [5] has as its system HCoV-229E-GFP. The series is described as follows: organism not typed. Type of series: cell-based.
In series [6] the test system is SARS-CoV-2 (MAD-6). The series is described as follows: microbe, parasite or virus in culture. In kind it is cell-based. The conditions noted are these: Severe acute respiratory syndrome coronavirus 2, Caco-2.
The subject of series [7] is HCoV-229E-GFP.
In another series the test system is FMDV. The conditions noted are these: mouse, in vivo, 100 mg/kg; cited from earlier work.
Series [8] concerns HCoV-229E-GFP. In kind it is cell-based.
For series [9], the system named is HCoV-229E-GFP. Type of series: cell-based. The source holds these as a separate data set.
Series [10] in a line: Cell viability by MTT assay (cytotoxicity), Caco-2. The conditions noted are these: human, Caco-2 cells.
The next series has as its system SARS-CoV-2. The series is described as follows: microbe, parasite or virus in culture. Type of series: cell-based. The conditions noted are these: for IC50: Severe acute respiratory syndrome coronavirus 2, Vero C1008.

Where two headings read alike, the source gives them in different places.

Turning to `CCCCCCCCCCCCOC(=O)c1cc(O)c(O)c(O)c1` [LG, Lauryl Gallate], the IC50 in the series with SARS-CoV-2 (MAD-6) [1] amounted to 1.28 µM; in the series with SARS-CoV-2 (MAD-6) [6], 2.98 µM; in the series with HCoV-229E-GFP [9] it was 2.05 µM; in the series with SARS-CoV-2, 1.22 µM. Besides, the CC50 at 24 h in [2] worked out at 83.1 µM; in series [4] it was 90.1 µM; in series [10], 97.1 µM. Moreover, the “reduction of the virus productivity” value in [3] is “up to 2 log.u”. For the same compound, the “direct virucidal effect on the virus particle” value in the series on SARS-CoV-2 MAD-6 and in the series on HCoV-229E-GFP [7] was “No direct toxicity” throughout. Also, the “reduction of the HCoV-229E-GFP infection” value in the series on HCoV-229E-GFP [5] is “up to 2 log.u”. Also, the clinical signs result in the series on FMDV was “reduction”. Besides, the mortality result in the series with FMDV is “reduction”. In the series with FMDV, the “viral RNA copies in different tissues” value is listed as “reduction”. For the same compound, the “decrease in the HCoV-229E-GFP yield” value in the series on HCoV-229E-GFP [8] is reported as “more than 2 log.u”. Also, the SI with SARS-CoV-2 is on record as 70,9.

On to `CCCCCCCCOC(=O)c1cc(O)c(O)c(O)c1` [OG, octyl gallate], for which the “inhibition of FMDV production” value in [3] is reported as “totally ineffective”. In addition, the “reduction of the HCoV-229E-GFP infection” value with HCoV-229E-GFP [5] is “up to 2 log.u”. In the series with HCoV-229E-GFP [5] (Huh-7), this compound came in with a half-inhibitory concentration (IC50) of 6.21 µM.

In the case of `CCCOC(=O)c1cc(O)c(O)c(O)c1` [PG, propyl gallate], the “inhibition of FMDV production” value in series [3] is reported as “totally ineffective”. The virus inhibition entry with HCoV-229E-GFP [5] is “unable to produce virus inhibition”.

On to `O=C(O[C@@H]1Cc2c(O)cc(O)cc2O[C@@H]1c1ccc(O)c(O)c1)c1cc(O)c(O)c(O)c1` [epicatechin gallate], for which, in the series with SARS-CoV-2, the SI was 5,8 and the half-maximal inhibitory concentration (IC50) amounted to 50.1 µM.

Consider `O=C(O)c1cc(O)c(O)c(O)c1` [gallic acid], for which the “inhibition of FMDV production” value in series [3] is on record as “totally ineffective”. For the same compound, the virus inhibition result with HCoV-229E-GFP [5] is listed as “unable to produce virus inhibition”. Moreover, in the series with SARS-CoV-2, the SI is 6,2 and the IC50 came out at 40.3 µM.
